Data: US4310533A, “Guanidinobenzoic acid derivatives” (Ono Pharmaceutical Co., Ltd., priority 1979, dated 1982)
pIC50: −log10 of the molar value. Structures can show the parent of a compound that is named as a salt.

How the values were obtained:
[1] = biological target: T1, trypsin (Bos taurus, UniProt P00760); experiment: Inhibitory activity on trypsin in vitro (hydrolysis of p-tosylarginine methyl ester); format: biochemical; conditions: trypsin 0.5 μg, 37° C., 30 minutes, read-out: 50% Inhibition Concentration (molar concentration), Anti-Trypsin
T1 sequence (P00760 24-246): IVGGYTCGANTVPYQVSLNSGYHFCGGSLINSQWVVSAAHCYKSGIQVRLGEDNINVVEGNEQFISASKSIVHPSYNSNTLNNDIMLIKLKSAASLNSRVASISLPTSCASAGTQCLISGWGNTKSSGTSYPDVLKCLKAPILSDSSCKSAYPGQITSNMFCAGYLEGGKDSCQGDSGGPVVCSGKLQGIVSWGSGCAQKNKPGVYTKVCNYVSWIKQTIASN
Description: The inhibitory activities on trypsin and plasmin in vitro were determined by the methods of M. Muramatsu et al. described in the Journal of Biochemistry, 58, 214 (1965) for trypsin, and ibid., 57, 402 (1964) for plasmin, and the results are shown in Table 1
^(1) The concentration of the compounds represented by the general
formula (I) at which the activity of trypsin 0.5 μg to hydrolyze
ptosylarginine methyl ester was 50% inhibited, when treated at 37°

[2] = Solubility in water; format: physicochemical
[3] = biological target: T2, plasmin (Homo sapiens, UniProt P00747); experiment: Inhibitory activity on plasmin in vitro (euglobulin/streptokinase/fibrinogen system); format: biochemical; conditions: human euglobulin, streptokinase, fibrinogen, borate saline buffer pH 7.4, 37° C., 30 minutes; read-out: 50% Inhibition Concentration (molar concentration), Anti-Plasmin
T2 construct: from tissue; host or cells: human euglobulin (plasma fraction), with streptokinase added
T2 sequence (P00747 581-810 limits assumed): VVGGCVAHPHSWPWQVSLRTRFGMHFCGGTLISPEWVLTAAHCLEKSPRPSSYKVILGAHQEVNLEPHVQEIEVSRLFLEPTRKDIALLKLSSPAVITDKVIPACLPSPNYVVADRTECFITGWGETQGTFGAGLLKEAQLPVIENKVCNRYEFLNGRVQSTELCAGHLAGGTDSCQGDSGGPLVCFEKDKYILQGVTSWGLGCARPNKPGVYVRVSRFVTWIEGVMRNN
T2 sequence (P00747 97-580 limits assumed): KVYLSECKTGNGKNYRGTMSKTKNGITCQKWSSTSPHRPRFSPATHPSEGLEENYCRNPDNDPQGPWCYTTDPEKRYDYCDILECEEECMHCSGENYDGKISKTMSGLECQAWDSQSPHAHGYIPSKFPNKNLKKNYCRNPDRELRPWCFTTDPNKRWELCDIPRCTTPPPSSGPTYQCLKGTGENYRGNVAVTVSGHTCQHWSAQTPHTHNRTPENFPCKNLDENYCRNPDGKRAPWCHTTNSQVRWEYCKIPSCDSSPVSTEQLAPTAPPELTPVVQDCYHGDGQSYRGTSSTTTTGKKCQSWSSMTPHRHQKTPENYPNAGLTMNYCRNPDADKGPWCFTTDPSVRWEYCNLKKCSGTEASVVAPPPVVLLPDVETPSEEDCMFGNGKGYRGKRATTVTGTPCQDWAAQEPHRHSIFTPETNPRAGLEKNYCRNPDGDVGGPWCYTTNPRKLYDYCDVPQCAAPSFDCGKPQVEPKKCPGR
Description: ^(2) The concentration of the compounds represented by the general
formula (I) at which the activity of plasmin was 50% inhibited, when
reacted in a system comprising 0.1 ml of humaneuglobulin (10 fold
dilution), 0.1 ml of streptokinase (2,000 unit/ml), 0.4 ml of fibrinogen
(4% solution), 0.3 ml of a 0.1M borate saline buffer solution (pH 7.4) an
0.1 ml of a solution of each of the compounds at 37° C. for 30

[4] = system: plasmin; conditions: prior art; cited from earlier work

| pIC50 [1] | solubility [2] [mM] | pIC50 [3] | SMILES | anti-plasmin activity (in words) [4] |
| --- | --- | --- | --- | --- |
| 9.30 | 20 | 9.35 | CS(=O)(=O)O.N=C(N)Nc1ccc(C(=O)Oc2ccc(C(=O)OCC(=O)N3CCCCC3)cc2)cc1 [Compound No. 1, piperidinocarbonylmethyl 4-(4-guanidinobenzoyloxy)benzoate mesylate] | – |
| – | – | – | NC[C@H]1CC[C@H](C(=O)O)CC1 [Compound No. 3, trans-4-aminomethylcyclohexanecarboxylic acid] | relatively low activities |
| 9.74 | 20 | 9.89 | N=C(N)Nc1ccc(C(=O)Oc2ccc(C(=O)OCC(=O)NC3CCCCC3)cc2)cc1 [Compound No. 2, N-cyclohexylcarbamoylmethyl 4-(4-guanidinobenzoyloxy)benzoate mesylate] | – |
